Patent publication US12655116B2, “Substituted isophthalic acid diamides” (Bayer Aktiengesellschaft, priority 2020, dated 2026)

Experiments:
[1] = tested on: SETVI; assay: Pre-emergence herbicidal action against SETVI; type: in vivo, Setaria viridis; details: dosage 80 g/ha
How it was run: (§1)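 Visual rating at 3 weeks vs untreated pots; 0–100% scale, 100% = plants died. Treatment: aqueous WP/EC spray onto covering soil, 600–800 l/ha, 0.2% wetter, seeds in sandy loam.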

[2] = tested on: ECHCG; assay: Post-emergence herbicidal action against ECHCG; type: in vivo, Echinochloa crus-galli
How it was run: (§2)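 Weeds in sandy loam soil received a post-emergence spray at the one-leaf stage. Compounds were applied as WP or EC in water, 600 to 800 l/ha, with 0.2% wetting agent. Activity in % was judged visually after roughly 3 weeks against untreated plants.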

[3] = tested on: AVEFA; assay: Pre-emergence herbicidal action against AVEFA; type: in vivo, Avena fatua; details: 80 g/ha, pre-emergence
How it was run: as §1

[4] = tested on: PHBPU; assay: Post-emergence herbicidal action against PHBPU; type: in vivo, Pharbitis purpurea
How it was run: as §2

[5] = tested on: VERPE; assay: Post-emergence herbicidal action against VERPE; type: in vivo, Veronica persica
How it was run: as §2

[6] = tested on: AMARE; assay: Post-emergence herbicidal action against AMARE; type: in vivo, Amaranthus retroflexus; details: 20 g/ha, visual assessment about 3 weeks after treatment, 100% = plants have died, 0% = like control plants
How it was run: as §2

[7] = tested on: PHBPU; assay: Pre-emergence herbicidal action against PHBPU; type: in vivo, Pharbitis purpurea; details: dosage 80 g/ha
How it was run: as §1

[8] = tested on: AVEFA; assay: Post-emergence herbicidal action against AVEFA; type: in vivo, Avena fatua; details: 20 g/ha, visual assessment about 3 weeks after treatment, 100% = plants have died, 0% = like control plants
How it was run: as §2

[9] = tested on: ABUTH; assay: Pre-emergence herbicidal action against ABUTH; type: in vivo, Abutilon theophrasti
How it was run: as §1

[10] = tested on: SETVI; assay: Post-emergence herbicidal action against SETVI; type: in vivo, Setaria viridis; details: dosage 20 g/ha
How it was run: as §2

[11] = tested on: MATIN; assay: Pre-emergence herbicidal action against MATIN; type: in vivo, Matricaria inodora
How it was run: as §1

[12] = tested on: DIGSA; assay: Post-emergence herbicidal action against DIGSA; type: in vivo, Digitaria sanguinalis
How it was run: as §2

[13] = tested on: ABUTH; assay: Post-emergence herbicidal action against ABUTH; type: in vivo, Abutilon theophrasti; details: visual assessment about 3 weeks after treatment vs untreated controls
How it was run: as §2

[14] = tested on: ECHCG; assay: Pre-emergence herbicidal action against ECHCG; type: in vivo, Echinochloa crus-galli; details: 80 g/ha
How it was run: as §1

[15] = tested on: VIOTR; assay: Post-emergence herbicidal action against VIOTR; type: in vivo, Viola tricolor
How it was run: as §2

[16] = tested on: DIGSA; assay: Pre-emergence herbicidal action against DIGSA; type: in vivo, Digitaria sanguinalis
How it was run: as §1

[17] = tested on: STEME; assay: Pre-emergence herbicidal action against STEME; type: in vivo, Stellaria media
How it was run: as §1

[18] = tested on: AMARE; assay: Pre-emergence herbicidal action against AMARE; type: in vivo, Amaranthus retroflexus
How it was run: as §1

[19] = tested on: MATIN; assay: Post-emergence herbicidal action against MATIN; type: in vivo, Matricaria inodora
How it was run: as §2

[20] = tested on: STEME; assay: Post-emergence herbicidal action against STEME; type: in vivo, Stellaria media
Experimental: Seeds of monocotyledonous and dicotyledonous weed and crop plants are laid out in sandy loam soil in wood-fiber pots, covered with soil and cultivated in a greenhouse under good growth conditions. 2 to 3 weeks after sowing, the test plants are treated at the one-leaf stage. The compounds of the invention, formulated in the form of wettable powders (WP) or as emulsion concentrates (EC), are then sprayed onto the green parts of the plants in the form of an aqueous suspension or emulsion at a water application rate equivalent to 600 to 800 l/ha, with addition of 0.2% wetting agent. After the test plants have been left to stand in the greenhouse under optimal growth conditions for about 3 weeks, the action of the preparations is assessed visually in comparison to untreated controls (herbicidal action in percent (%): 100% activity=the plants have died, 0% activity=like control plants). […] The tables below illustrate, in an illustrative manner, the post-emergence herbicidal action of the compounds of the invention, the herbicidal activity being stated in percent.

[21] = tested on: VIOTR; assay: Pre-emergence herbicidal action against VIOTR; type: in vivo, Viola tricolor
How it was run: as §1

[22] = tested on: ALOMY; assay: Pre-emergence herbicidal action against ALOMY; type: in vivo, Alopecurus myosuroides; details: 80 g/ha, pre-emergence, scored visually after 3 weeks vs untreated controls (100% = plants have died, 0% = like control plants)
How it was run: as §1

[23] = tested on: POLCO; assay: Pre-emergence herbicidal action against POLCO; type: in vivo, Polygonum convolvulus; details: dosage 80 g/ha
How it was run: as §1

[24] = tested on: VERPE; assay: Pre-emergence herbicidal action against VERPE; type: in vivo, Veronica persica; details: dosage 80 g/ha
How it was run: as §1

[25] = Tripleurospermum inodorum, 504 h, dosage 20 g/ha
[26] = 80 g/ha, scored visually after 3 weeks vs untreated controls (100% = plants have died, 0% = like control plants)
[27] = dosage 20 g/ha, scored visually after 3 weeks vs untreated controls, 100% = plants have died, 0% = like control plants
[28] = 20 g/ha, scored visually after 3 weeks vs untreated controls, 100% = plants have died, 0% = like control plants

CNC(=O)c1c(C(F)F)ccc(C(=O)Nc2nnnn2C)c1C [Example 1-44]
pest or weed control at 80 g/ha ([1]; Setaria viridis, 504 h): 100%
pest or weed control at 20 g/ha ([2]; Echinochloa crus-galli, 504 h, dosage 20 g/ha): 80%
pest or weed control at 80 g/ha ([3]; Avena fatua, 504 h): 90%
pest or weed control at 20 g/ha ([4]; Ipomoea purpurea, 504 h, dosage 20 g/ha): 80%
pest or weed control at 5 g/ha ([5]; Veronica persica, 504 h, 5 g/ha): 80%
pest or weed control at 20 g/ha ([5]; Veronica persica, 504 h, 20 g/ha): 100%
pest or weed control at 20 g/ha ([6]; Amaranthus retroflexus, 504 h): 100%
pest or weed control at 80 g/ha ([7]; Ipomoea purpurea, 504 h): 80%
pest or weed control at 20 g/ha ([8]; Avena fatua, 504 h): 80%
pest or weed control at 80 g/ha ([9]; Abutilon theophrasti, 504 h, 80 g/ha, scored visually after 3 weeks vs untreated controls (100% = plants have died, 0% = like control plants)): 100%
pest or weed control at 20 g/ha ([9]; Abutilon theophrasti, 504 h, dosage 20 g/ha, scored visually after 3 weeks vs untreated controls, 100% = plants have died, 0% = like control plants, read-out: Pre-emergence action against ABUTH (herbicidal activity in percent)): 100%
pest or weed control at 20 g/ha ([10]; Setaria viridis, 504 h): 90%
pest or weed control at 20 g/ha [11, 25]: 90%
pest or weed control at 80 g/ha ([11]; Tripleurospermum inodorum, 504 h, dosage 80 g/ha): 90%
pest or weed control at 5 g/ha ([12]; Digitaria sanguinalis, 504 h, 5 g/ha): 80%
pest or weed control at 20 g/ha ([12]; Digitaria sanguinalis, 504 h, 20 g/ha): 90%
pest or weed control at 5 g/ha ([13]; Abutilon theophrasti, 504 h, dosage 5 g/ha): 90%
pest or weed control at 20 g/ha ([13]; Abutilon theophrasti, 504 h, dosage 20 g/ha): 100%
pest or weed control at 80 g/ha ([14]; Echinochloa crus-galli, 504 h): 90%
pest or weed control at 20 g/ha ([15]; Viola tricolor, 504 h, 20 g/ha): 80%
pest or weed control at 20 g/ha ([16]; Digitaria sanguinalis, 504 h, dosage 20 g/ha): 90%
pest or weed control at 80 g/ha ([16]; Digitaria sanguinalis, 504 h, dosage 80 g/ha): 100%
pest or weed control at 20 g/ha ([17]; Stellaria media, 504 h, dosage 20 g/ha): 90%
pest or weed control at 80 g/ha ([17]; Stellaria media, 504 h, dosage 80 g/ha): 90%
pest or weed control at 20 g/ha ([18]; Amaranthus retroflexus, 504 h, 20 g/ha, scored visually after 3 weeks vs untreated controls, 100% = plants have died, 0% = like control plants): 100%
pest or weed control at 80 g/ha ([18]; Amaranthus retroflexus, 504 h, 80 g/ha, scored visually after 3 weeks vs untreated controls, 100% = plants have died, 0% = like control plants): 100%
pest or weed control at 5 g/ha ([19]; Tripleurospermum inodorum, 504 h, dosage 5 g/ha): 80%
pest or weed control at 20 g/ha [19, 25]: 90%
pest or weed control at 20 g/ha ([20]; Stellaria media, 504 h, 20 g/ha): 80%
pest or weed control at 5 g/ha ([20]; Stellaria media, 504 h, dosage 5 g/ha): 80%
pest or weed control at 80 g/ha ([21]; Viola tricolor, 504 h, dosage 80 g/ha): 90%
pest or weed control at 80 g/ha ([22]; Alopecurus myosuroides, 504 h): 90%

CCCn1nnnc1NC(=O)c1ccc(C(F)(F)F)c(C(=O)NCC)c1Br [Example 3-208]
Pre-emergence action against SETVI in % [1]: 100%
Pre-emergence action against AVEFA in % [3]: 100%
Post-emergence action against PHBPU in % ([4]; dosage 5 g/ha): 80%
Post-emergence action against PHBPU in % ([4]; dosage 20 g/ha): 90%
Post-emergence action at 20 g/ha against AMARE in % [6]: 90%
Post-emergence action at 20 g/ha against AVEFA in % [8]: 80%
Pre-emergence action against ABUTH (herbicidal activity) [9, 26]: 100%
Pre-emergence action against ABUTH (herbicidal activity in percent) [9, 27]: 100%
Pre-emergence action against MATIN in % ([11]; dosage 20 g/ha): 100%
Pre-emergence action against MATIN in % ([11]; dosage 80 g/ha): 100%
Pre-emergence action against POLCO in % [23]: 80%
Post-emergence action against ABUTH in % ([13]; dosage 5 g/ha): 90%
Post-emergence action against ABUTH in % ([13]; dosage 20 g/ha): 90%
Pre-emergence action against ECHCG in % [14]: 80%
Post-emergence action against VIOTR in % ([15]; 5 g/ha): 100%
Post-emergence action against VIOTR in % ([15]; 20 g/ha): 100%
Pre-emergence action against DIGSA in % ([16]; dosage 80 g/ha): 80%
Pre-emergence action against STEME in % ([17]; dosage 20 g/ha): 90%
Pre-emergence action against STEME in % ([17]; dosage 80 g/ha): 100%
Pre-emergence action against AMARE in % [18, 28]: 100%
Pre-emergence action against AMARE in % [18, 26]: 100%
Post-emergence action against MATIN in % ([19]; dosage 5 g/ha): 90%
Post-emergence action against MATIN in % ([19]; dosage 20 g/ha): 90%
Post-emergence action against STEME in % ([20]; 20 g/ha): 90%
Post-emergence action against STEME in % ([20]; dosage 5 g/ha): 80%
Pre-emergence action against VIOTR in % ([21]; dosage 80 g/ha): 100%
Pre-emergence action against ALOMY (herbicidal activity) [22]: 90%

CCCn1nnnc1NC(=O)c1ccc(C(F)(F)F)c(C(=O)NC2CC2)c1CC [Example 3-273]
Pre-emergence action against SETVI in % [1]: 100%
Post-emergence action against ECHCG in % ([2]; dosage 5 g/ha): 80%
Post-emergence action against ECHCG in % ([2]; dosage 20 g/ha): 80%
Pre-emergence action against AVEFA in % [3]: 90%
Post-emergence action against PHBPU in % ([4]; dosage 20 g/ha): 80%
Post-emergence action against VERPE in % ([5]; 20 g/ha): 80%
Pre-emergence action against PHBPU in % [7]: 90%
Post-emergence action at 20 g/ha against AVEFA in % [8]: 80%
Pre-emergence action against ABUTH (herbicidal activity) [9, 26]: 100%
Pre-emergence action against ABUTH (herbicidal activity in percent) [9, 27]: 90%
Post-emergence action against SETVI in % [10]: 80%
Pre-emergence action against MATIN in % ([11]; dosage 20 g/ha): 90%
Pre-emergence action against MATIN in % ([11]; dosage 80 g/ha): 100%
Post-emergence action against DIGSA in % ([12]; 5 g/ha): 80%
Post-emergence action against DIGSA ([12]; 20 g/ha): 90%
Post-emergence action against ABUTH in % ([13]; dosage 5 g/ha): 80%
Post-emergence action against ABUTH in % ([13]; dosage 20 g/ha): 90%
Pre-emergence action against ECHCG in % [14]: 80%
Pre-emergence action against DIGSA in % ([16]; dosage 20 g/ha): 90%
Pre-emergence action against DIGSA in % ([16]; dosage 80 g/ha): 100%
Pre-emergence action against STEME in % ([17]; dosage 20 g/ha): 90%
Pre-emergence action against STEME in % ([17]; dosage 80 g/ha): 100%
Pre-emergence action against AMARE in % [18, 28]: 100%
Pre-emergence action against AMARE in % [18, 26]: 100%
Post-emergence action against MATIN in % ([19]; dosage 5 g/ha): 80%
Post-emergence action against MATIN in % ([19]; dosage 20 g/ha): 90%
Post-emergence action against STEME in % ([20]; 20 g/ha): 90%
Post-emergence action against STEME in % ([20]; dosage 5 g/ha): 80%
Pre-emergence action against VIOTR in % ([21]; dosage 20 g/ha): 100%
Pre-emergence action against VIOTR in % ([21]; dosage 80 g/ha): 100%
Pre-emergence action against VERPE in % [24]: 100%
